Tested on: CHK2 phosphorylation (phospho-Thr68) in HCT116 cells
Experiment: Cellular pCHK2 assay, bleomycin-induced phosphorylation of CHK2 (phospho-Thr68), immunofluorescence high content
Type: cell-based
Details: Homo sapiens, HCT-116; HCT116 cells, 10 μM bleomycin, 4 h; read-out: IC50 (pCHK2)
Description: For the identification of substances which inhibit the phosphorylation of the protein kinase CHK2 at the amino acid threonine 68, an immunofluorescence-based “high content” analysis assay was used in HCT116 cells.
In vitro cell-based immunofluorescence assay for the identification of inhibitors of bleomycin-induced phosphorylation of CHK2 (phospho-Thr68) in the human colon carcinoma cell line HCT116:
HCT116 cells are sown out in a defined cell density in 384-well plates in culture medium (DMEM high glucose, 2 mM GlutaMax, 1 mM Na pyruvate, 10% FCS) and incubated overnight at 37° C. and 10% of CO2. On the following day, the test substances are added in a defined concentration range (1 nM to 30 μM) in combination with 10 μM bleomycin, where the concentration of the solvent DMSO is kept constant at 0.5%. After incubation for four hours at 37° C. and 10% of CO2, the cells are fixed (5 min, 4% formaldehyde in PBS), permeabilised (10 min, 0.2% Triton X-100 in PBS) and, after blocking of nonspecific binding sites (10% goat serum, 1% BSA in PBS), incubated overnight at 4° C. with a specific anti-pCHK2 antibody (cell signalling #2661). pCHK2 (Thr68) is determined using an Alexa488-labelled secondary anti-rabbit IgG antibody. Parallel staining of DNA with propidium iodide enables determination of the cell count. The pCHK2 signal is detected using a high-content imager (Molecular Devices IMX Ultra) and automatic image analysis using the MetaXpress software belonging to the instrument. The number of cell nuclei which have a pCHK2 signal above a defined background is determined.

SMILES | IC50 [nM]
CCc1cncc(F)c1-n1c(=O)n(C)c2cnc3cc(OC)c(-c4cnn(C)n4)cc3c21 [compound 112, 1-(3-Ethyl-5-fluoropyridin-4-yl)-7-methoxy-3-methyl-8-(2-methyl-2H-1,2,3-triazol-4-yl)-1,3-dihydroimidazo-[4,5-c]quinolin-2-one] | 200 to 1000
COc1cnc(-n2c(=O)n(C)c3cnc4cc(OC)c(-c5ccc6nc[nH]c6c5)cc4c32)c(F)c1 [compound 153, 8-(3H-Benzimidazol-5-yl)-1-(3-fluoro-5-methoxypyridin-2-yl)-7-methoxy-3-methyl-1,3-dihydroimidazo[4,5-c]-quinolin-2-one] | 200 to 1000
COc1cc2ncc3c(c2cc1-c1cnn(C)c1)n(-c1c(F)cncc1OCF)c(=O)n3C [compound 148] | < 200
COc1cc2ncc3c(c2cc1-c1n[nH]cc1C)n(-c1cn(C)nc1C)c(=O)n3C [compound 151, 1-(1,3-Dimethyl-1H-pyrazol-4-yl)-7-methoxy-3-methyl-8-(4-methyl-1H-pyrazol-3-yl)-1,3-dihydroimidazo[4,5-c] quinolin-2-one] | < 200
COc1cnc(-n2c(=O)n(C)c3cnc4cc(OC)c(-c5cnn[nH]5)cc4c32)c(F)c1 [compound 128, 1-(3-Fluoro-5-methoxy-pyridin-2-yl)-7-methoxy-3-methyl-8-(3H-1,2,3-triazol-4-yl)-1,3-dihydroimidazo-[4,5-c]quinolin-2-one] | 200 to 1000
CCn1cc(-c2cc3c(cc2OC)ncc2c3n(-c3ccncc3OC)c(=O)n2C)cn1 [compound 104, 8-(1-Ethyl-1H-pyrazol-4-yl)-7-methoxy-1-(3-methoxy-pyridin-4-yl)-3-methyl-1,3-dihydroimidazo[4,5-c] quinolin-2-one] | 200 to 1000
COc1cc2ncc3c(c2cc1-c1ccn[nH]1)n(-c1c(F)cncc1OC)c(=O)n3C [compound 124, 1-(3-Fluoro-5-methoxy-pyridin-4-yl)-7-methoxy-3-methyl-8-(2H-pyrazol-3-yl)-1,3-dihydroimidazo[4,5-c] quinolin-2-one] | 200 to 1000
COc1cc2ncc3c(c2cc1-c1cnc2nc(C)[nH]c2c1)n(-c1c(F)cncc1OC)c(=O)n3C [compound 152, 1-(3-Fluoro-5-methoxy-pyridin-4-yl)-7-methoxy-3-methyl-8-(2-methyl-1H-imidazo[4,5-b]pyridin-6-yl)-1,3-dihydroimidazo[4,5-c]-quinolin-2-one] | < 200
CCOc1cnc(-n2c(=O)n(C)c3cnc4cc(OC)c(-c5cnn(C)c5)cc4c32)c(F)c1 [compound 113, 1-(5-Ethoxy-3-fluoropyridin-2-yl)-7-methoxy-3-methyl-8-(1-methyl-1H-pyrazol-4-yl)-1,3-dihydroimidazo[4,5-c]-quinolin-2-one] | < 200
CCc1cnccc1-n1c(=O)n(C)c2cnc3cc(OC)c(-c4cnn(C)c4)cc3c21 [compound 156, 1-(3-Ethylpyridin-4-yl)-7-methoxy-3-methyl-8-(1-methyl-1H-pyrazol-4-yl)-1,3-dihydroimidazo[4,5-c] quinolin-2-one] | 200 to 1000
COc1cc2ncc3c(c2cc1-c1cnn(C)n1)n(-c1ncc(F)cc1F)c(=O)n3C [compound 101, 1-(3,5-Difluoropyridin-2-yl)-7-methoxy-3-methyl-8-(2-methyl-2H-1,2,3-triazol-4-yl)-1,3-dihydroimidazo-[4,5-c]quinolin-2-one] | < 200
COc1cc2ncc3c(c2cc1-c1cnn(C)c1)n(-c1c(F)cncc1OC(F)F)c(=O)n3C [compound 146, 1-(3-Difluoromethoxy-5-fluoropyridin-4-yl)-7-methoxy-3-methyl-8-(1-methyl-1H-pyrazol-4-yl)-1,3-dihydroimidazo[4,5-c]-quinolin-2-one] | < 200
COc1cc2ncc3c(c2cc1-c1cnn(C)n1)n(-c1c(F)cncc1OC)c(=O)n3C [compound 127, 1-(3-Fluoro-5-methoxy-pyridin-4-yl)-7-methoxy-3-methyl-8-(2-methyl-2H-1,2,3-triazol-4-yl)-1,3-dihydroimidazo[4,5-c] quinolin-2-one] | 200 to 1000
CCn1cc(-n2c(=O)n(C)c3cnc4cc(OC)c(-c5cn(C)nc5C)cc4c32)c(C)n1 [compound 135, 8-(1,3-Dimethyl-1H-pyrazol-4-yl)-1-(1-ethyl-3-methyl-1H-pyrazol-4-yl)-7-methoxy-3-methyl-1,3-dihydro-imidazo[4,5-c]quinolin-2-one] | 200 to 1000
COc1cc2ncc3c(c2cc1-c1ccc2nc(C)[nH]c2c1)n(-c1cn(C)nc1C)c(=O)n3C [compound 132, 1-(1,3-Dimethyl-1H-pyrazol-4-yl)-7-methoxy-3-methyl-8-(2-methyl-3H-benzo-imidazol-5-yl)-1,3-dihydro-imidazo[4,5-c]quinolin-2-one] | 200 to 1000
COc1cc2ncc3c(c2cc1-c1cnn(C)c1)n(-c1c(F)cncc1C1CC1)c(=O)n3C [compound 202, 1-(3-Cyclopropyl-5-fluoro-pyridin-4-yl)-7-methoxy-3-methyl-8-(1-methyl-1H-pyrazol-4-yl)-1,3-dihydro-imidazo[4,5-c]quinolin-2-one] | 200 to 1000
COc1cc2ncc3c(c2cc1-c1cn(C)nn1)n(-c1ccncc1F)c(=O)n3C [compound 64, 1-(3-Fluoropyridin-4-yl)-7-methoxy-3-methyl-8-(1-methyl-1H-1,2,3-triazol-4-yl)-1,3-dihydroimidazo-[4,5-c]quinolin-2-one] | 200 to 1000
COc1cnc(-n2c(=O)n(C)c3cnc4cc(OC)c(-c5cn(C)nc5C)cc4c32)c(F)c1 [compound 106, 8-(1,3-Dimethyl-1H-pyrazol-4-yl)-1-(3-fluoro-5-methoxypyridin-2-yl)-7-methoxy-3-methyl-1,3-dihydroimidazo[4,5-c]-quinolin-2-one] | 200 to 1000
COc1cc2ncc3c(c2cc1-c1cnn[nH]1)n(-c1c(F)cncc1OC)c(=O)n3C [compound 134, 1-(3-Fluoro-5-methoxy-pyridin-4-yl)-7-methoxy-3-methyl-8-(3H-1,2,3-triazol-4-yl)-1,3-dihydroimidazo-[4,5-c]quinolin-2-one] | 200 to 1000
COc1cc2ncc3c(c2cc1-c1cn(C)nn1)n(-c1cn(C)nc1C)c(=O)n3C [Compound Example 42, 1-(1,3-Dimethyl-1H-pyrazol-4-yl)-7-methoxy-3-methyl-8-(1-methyl-1H-1,2,3-triazol-4-yl)-1,3-dihydroimidazo-[4,5-c]quinolin-2-one] | 200 to 1000
COc1cc2ncc3[nH]c(=O)n(-c4ncc(F)cc4F)c3c2cc1-c1cnn(C)c1 [compound 107, 1-(3,5-Difluoropyridin-2-yl)-7-methoxy-8-(1-methyl-1H-pyrazol-4-yl)-1,3-dihydro-imidazo[4,5-c]quinolin-2-one] | 200 to 1000
CNCCOc1cnc(-n2c(=O)n(C)c3cnc4cc(OC)c(-c5cnn(C)c5)cc4c32)c(F)c1 [compound 206] | 200 to 1000
CCn1cc(-c2cc3c(cc2OC)ncc2c3n(-c3ncc(OC)cc3F)c(=O)n2C)cn1 [compound 111, 8-(1-Ethyl-1H-pyrazol-4-yl)-1-(3-fluoro-5-methoxy-pyridin-2-yl)-7-methoxy-3-methyl-1,3-dihydroimidazo-[4,5-c]quinolin-2-one] | 200 to 1000
COc1cc2ncc3c(c2cc1-c1cnn(C)c1)n(-c1ccccn1)c(=O)n3C [Compound Example 56, 7-Methoxy-3-methyl-8-(1-methyl-1H-pyrazol-4-yl)-1-pyridin-2-yl-1,3-dihydro-imidazo[4,5-c]quinolin-2-one] | 200 to 1000
COc1cc2ncc3c(c2cc1-c1cnn(C(F)F)c1)n(-c1c(F)cncc1OC)c(=O)n3C [compound 143, 8-(1-Difluoromethyl-1H-pyrazol-4-yl)-1-(3-fluoro-5-methoxypyridin-4-yl)-7-methoxy-3-methyl-1,3-dihydroimidazo[4,5-c] quinolin-2-one] | 200 to 1000
COc1cc2ncc3c(c2cc1-c1cnn(C2CNC2)c1)n(-c1c(F)cncc1OC)c(=O)n3C [compound 208, 8-[1-(Azetidin-3-yl)-1H-pyrazol-4-yl]-1-(3-fluoro-5-methoxypyridin-4-yl)-7-methoxy-3-methyl-1H,2H,3H-imidazo[4,5-c]-quinolin-2-one] | 1000 to 2000
COc1cc2ncc3[nH]c(=O)n(-c4c(F)cncc4OC)c3c2cc1-c1cn(C)nc1C [compound 129, 8-(1,3-Dimethyl-1H-pyrazol-4-yl)-1-(3-fluoro-5-methoxy-pyridin-4-yl)-7-methoxy-1,3-dihydroimidazo[4,5-c]-quinolin-2-one] | 1000 to 2000
CNC(=O)c1cnc(-n2c(=O)n(C)c3cnc4cc(OC)c(-c5cn(C)nc5C)cc4c32)c(F)c1 [compound 139, 6-[8-(1,3-Dimethyl-1H-pyrazol-4-yl)-7-methoxy-3-methyl-2-oxo-2,3-dihydro-imidazo[4,5-c]quinolin-1-yl]-5-fluoro-N-methyl-nicotinamid] | 200 to 1000
COc1cc2ncc3c(c2cc1-c1cnn(C)c1)n(-c1ncccn1)c(=O)n3C [Compound Example 52, 7-Methoxy-3-methyl-8-(1-methyl-1H-pyrazol-4-yl)-1-pyrimidin-2-yl-1,3-dihydro-imidazo[4,5-c]quinolin-2-one] | 200 to 1000
